Reference: patent publication US11802128B2, “Azetidine and pyrrolidine PARP1 inhibitors and uses thereof” (Xinthera, Inc., priority 2021, dated 2023)

What was measured:
[1] = system: MDA-MB-436 (mutated BRCA1) cells; assay: Cell growth inhibition assay (CellTiter-Glo cell viability, 7 days); type: cell-based; conditions: Homo sapiens, 168 h, MDA-MB-436, 7 days
Text: (§1) The objective of this study is to evaluate the effect of invention compounds on cell proliferation through the cell viability assay in DLD-1 BRCA2(−/−) and parental isogenic pair and MDA-MB-436 (mutated BRCA1) cell lines. The CellTiter-Glo (CTG) based cell viability assay is designed to determine the number of viable cells in the culture because of compound effect, by quantifying ATP, which indicates the presence of metabolically active cells.
(§2) DLD-1 BRCA2(−/−) and parental isogenic pair were cultured in RPMI 1640 supplemented with 10% fetal bovine serum (FBS), and MDA-MB-436 cells were cultured in DMEM supplemented with 10% FBS. Both are culture at 37° C. with 5% CO2. Invention compounds were distributed to the 384 well plate (Corning, 3764) using Echo acoustic liquid handler to form a 1:3 serially diluted final concentration with top dose of 10 or 30 μM. The cells were seeded into the plate in the density of 50 cells/well (DLD-1 parental), 200 cells/well (DLD-1 BRCA2−/−), or 500 cells/well (MDA-MB-436). After a short spun, the cells were cultured in a well moisturized incubator at 37° C. with 5% CO2 for 7 days without disturbance. The cell viability was measured by CellTiter Glo 2.0 assay kit (Promega, G9243), and growth inhibition rate was calculated and plotted against final compound concentration, and the data were fitted in Xfit to generate IC50.

DLD-1 BRCA2(−/−) cells = assay: as above; type: cell-based; conditions: Homo sapiens, 168 h
Text: as §1, §2

Row | SMILES | EC50 [1] [nM] | EC50 (DLD-1 BRCA2(−/−) cells) [nM]
1 | CCc1nc2ccc(CN3C[C@H](Oc4ccc(C(=O)NC)nc4F)[C@H]3C)c(F)c2[nH]c1=O [Example 100] | 5.9 | 11
2 | CNC(=O)c1ccc(O[C@H]2CN(Cc3cc(F)c4nc(C)c(=O)[nH]c4c3F)[C@@H]2C)cn1 [Example 102] | 110 | 49
3 | Cc1nc2ccc(CN3C[C@H](Oc4ccc(C(=O)NC5CC5)nc4F)[C@H]3C)c(F)c2[nH]c1=O [Example 103] | 30 | 27
4 | CNC(=O)c1ccc(O[C@H]2CN(Cc3ccc4cc(Cl)c(=O)[nH]c4c3F)[C@@H]2C)cn1 [Example 106, 5-{[(2R,3S)-1-[(3-chloro-8-fluoro-2-oxo-1H-quinolin-7-yl)methyl]-2-methylazetidin-3-yl]oxy}-N-methylpyridine-2-carboxamide] | 5 | 8.3
5 | CCc1nc2c(F)cc(CN3C[C@H](Oc4ccc(C(=O)NC)nc4)[C@H]3C)c(F)c2[nH]c1=O [Example 107] | 17 | 30
6 | CCc1cc2c(F)cc(CN3C[C@H](Oc4ccc(C(=O)NC)nc4)[C@H]3C)c(F)c2[nH]c1=O [Example 108] | 12 | 12
7 | [2H]C([2H])([2H])NC(=O)c1ccc(O[C@H]2CN(Cc3ccc4nc(CC)c(=O)[nH]c4c3F)[C@@H]2C)c(F)n1 [Example 110, 5-{[(2R,3S)-1-[(2-ethyl-5-fluoro-3-oxo-4H-quinoxalin-6-yl)methyl]-2-methylazetidin-3-yl]oxy}-6-fluoro-N-methyl-d3 pyridine-2-carboxamide] | 9.4 | 14
8 | [2H]C([2H])(c1ccc2nc(CC)c(=O)[nH]c2c1F)N1C[C@H](Oc2ccc(C(=O)NC)nc2F)[C@H]1C [Example 111] | 13 | 15
9 | CNC(=O)c1ccc(O[C@H]2CN(Cc3ccc4c([nH]c(=O)c5ccnn54)c3F)[C@@H]2C)cn1 [Example 113, 5-{[(2R,3S)-1-({6-fluoro-4-oxo-5H-pyrazolo[1,5-a]quinoxalin-7-yl}methyl)-2-methylazetidin-3-yl]oxy}-N-methylpyridine-2-carboxamide] | 8.7 | 16
10 | CNC(=O)c1ccc(O[C@H]2CN(Cc3ccc4c5c(c(=O)[nH]c4c3F)CCO5)[C@@H]2C)cn1 [Example 115, 5-{[(2R,3S)-1-({6-fluoro-4-oxo-2H,3H,5H-furo[3,2-c]quinolin-7-yl}methyl)-2-methylazetidin-3-yl]oxy}-N-methylpyridine-2-carboxamide] | 170 | 170
11 | CCc1nc2ccc(CN3CC(Oc4ccc(C(=O)NC5CC5)nc4)C3)c(F)c2[nH]c1=O [Example 117] | 13 | 13
12 | CCc1cc2ccc(CN3CC(Oc4ccc(C(=O)NC5CC5)nc4)C3)c(F)c2[nH]c1=O [Example 118] | 22 | 24
13 | C[C@@H]1[C@@H](Oc2ccc(C(=O)NCC(F)F)nc2)CN1Cc1ccc2c([nH]c(=O)c3ccnn32)c1F [Example 119] | 4.4 | 6.8

These reach a lower EC50 [1]. Values come first.

Row | EC50 [1] [nM] | EC50 (DLD-1 BRCA2(−/−) cells) [nM] | SMILES
14 | 3.1 | 5.4 | CCc1nc2ccc(CN3C[C@H](Oc4ccc(C(=O)NC5CC5)nc4F)[C@H]3C)c(F)c2[nH]c1=O [Example 101]
15 | 0.85 | 1.9 | CCc1cc2ncc(CN3C[C@H](Oc4ccc(C(=O)NC5CC5)nc4F)[C@H]3C)cc2[nH]c1=O [Example 104]
16 | 0.93 | 2.2 | C[C@@H]1[C@@H](Oc2ccc(C(=O)NC3CC3)nc2F)CN1Cc1cnc2cc(Cl)c(=O)[nH]c2c1 [Example 105]
17 | 2.6 | 4.7 | [2H]C([2H])(c1ccc2nc(CC)c(=O)[nH]c2c1F)N1C[C@H](Oc2ccc(C(=O)NC3CC3)nc2F)[C@H]1C [Example 112]
18 | 3.6 | 5.9 | Cc1cc2c(=O)[nH]c3c(F)c(CN4C[C@H](Oc5ccc(C(=O)NC6CC6)nc5)[C@H]4C)ccc3n2n1 [Example 114]
19 | 3.3 | 13 | C[C@@H]1[C@@H](Oc2ccc(C(=O)NC3CC3)nc2)CN1Cc1ccc2c3c(c(=O)[nH]c2c1F)CCO3 [Example 116]
